From publication PMC9556845 (Frontiers in Microbiology, 2022)
Entries after “also recorded” stand apart in the source; their conditions may differ. Read-outs that look alike come from different tables or passages of the source.

What was measured:
Type in all cases: biochemical
CD45 = target: T1, CD45 (Homo sapiens, UniProt P08575); experiment: Inhibition of protein tyrosine phosphatase (PTPs) assay, pNPP substrate: CD45
T1 sequence (P08575 26-1306): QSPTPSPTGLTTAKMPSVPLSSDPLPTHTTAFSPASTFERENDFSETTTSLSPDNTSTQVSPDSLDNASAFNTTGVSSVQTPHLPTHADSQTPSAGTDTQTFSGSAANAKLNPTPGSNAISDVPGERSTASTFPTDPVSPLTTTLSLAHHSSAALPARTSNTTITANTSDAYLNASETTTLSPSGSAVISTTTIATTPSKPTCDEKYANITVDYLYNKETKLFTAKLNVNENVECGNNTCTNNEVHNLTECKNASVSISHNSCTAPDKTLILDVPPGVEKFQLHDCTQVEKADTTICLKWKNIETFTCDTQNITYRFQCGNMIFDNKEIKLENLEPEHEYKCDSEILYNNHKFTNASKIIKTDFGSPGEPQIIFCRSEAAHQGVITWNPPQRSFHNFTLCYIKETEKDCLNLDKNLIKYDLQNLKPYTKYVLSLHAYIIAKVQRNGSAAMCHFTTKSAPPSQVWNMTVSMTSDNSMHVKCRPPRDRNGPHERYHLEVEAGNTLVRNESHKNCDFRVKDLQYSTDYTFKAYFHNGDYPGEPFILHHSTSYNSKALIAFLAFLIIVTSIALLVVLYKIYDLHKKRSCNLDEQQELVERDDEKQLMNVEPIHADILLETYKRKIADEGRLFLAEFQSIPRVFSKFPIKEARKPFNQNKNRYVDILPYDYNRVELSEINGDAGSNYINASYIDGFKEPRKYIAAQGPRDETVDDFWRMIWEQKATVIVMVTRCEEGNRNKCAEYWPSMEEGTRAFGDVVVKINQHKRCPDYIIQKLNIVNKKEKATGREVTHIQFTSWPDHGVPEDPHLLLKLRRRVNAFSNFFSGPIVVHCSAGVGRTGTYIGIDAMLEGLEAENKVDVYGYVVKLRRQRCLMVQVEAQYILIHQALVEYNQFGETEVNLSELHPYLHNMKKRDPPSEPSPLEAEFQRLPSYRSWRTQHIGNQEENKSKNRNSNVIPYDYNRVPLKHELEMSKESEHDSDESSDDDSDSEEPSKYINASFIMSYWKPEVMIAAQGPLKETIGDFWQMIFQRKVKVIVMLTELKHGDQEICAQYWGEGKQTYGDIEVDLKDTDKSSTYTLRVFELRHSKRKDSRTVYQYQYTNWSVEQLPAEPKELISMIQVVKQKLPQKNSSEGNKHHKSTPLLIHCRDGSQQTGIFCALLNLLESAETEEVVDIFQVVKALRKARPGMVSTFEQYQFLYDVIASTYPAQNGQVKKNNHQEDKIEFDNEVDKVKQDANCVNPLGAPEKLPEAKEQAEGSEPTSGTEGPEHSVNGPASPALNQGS
Description: (§1) Protein tyrosine phosphatase (PTPs) plays an important role in many human threatening diseases, such as PTP1B, an effective target for the treatment of type II diabetes; CD45, an effective target for the treatment of leukemia; and TCPTP, a reliable target for the treatment of cancer involved in multiple signaling pathways ([Ruddraraju and Zhang, 2017]). Nitrophenyl phosphate (pNPP) was used as substrate to determine the enzyme inhibition test. Fifty microliter reaction buffer (pH 6.5) including 50 mM HEPES, 100 mM NaCl, 1 mM EDTA, and 1 mM dithiothreitol (DTT) and compounds was added to 96 well plates, and incubate at room temperature for 15 min. Further, 50 μl reaction buffer with 50 mM pNPP was added and incubated at 37°C for 60 min. Na3VO4 was used as positive control and DMSO as the negative control. The phosphatase activity was determined by absorbance measured at 405 nm. The test was repeated three times for each compound. The IC50 value was derived from three independent experiments.
(§2) Protein tyrosine phosphatase (PTPs) plays an important role in many human threatening diseases, such as PTP1B, an effective target for the treatment of type II diabetes; CD45, an effective target for the treatment of leukemia; and TCPTP, a reliable target for the treatment of cancer involved in multiple signaling pathways ([Zhang, 2003]; [Vintonyak et al., 2009]).

TCPTP = target: T2, TCPTP (Homo sapiens, UniProt P17706); experiment: Inhibition of protein tyrosine phosphatase (PTPs) assay, pNPP substrate: TCPTP
T2 sequence (P17706 1-415): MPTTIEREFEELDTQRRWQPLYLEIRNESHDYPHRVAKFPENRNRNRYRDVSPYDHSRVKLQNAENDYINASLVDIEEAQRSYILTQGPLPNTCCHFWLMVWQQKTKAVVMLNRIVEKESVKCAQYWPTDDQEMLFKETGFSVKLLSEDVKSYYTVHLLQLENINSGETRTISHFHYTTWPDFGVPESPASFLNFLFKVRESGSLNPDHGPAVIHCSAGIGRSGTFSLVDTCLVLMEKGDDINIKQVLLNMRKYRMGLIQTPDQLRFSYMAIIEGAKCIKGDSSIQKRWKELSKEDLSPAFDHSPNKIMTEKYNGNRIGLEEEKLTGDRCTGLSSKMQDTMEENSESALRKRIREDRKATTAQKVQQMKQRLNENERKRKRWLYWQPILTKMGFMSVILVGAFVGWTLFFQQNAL
Description: as §1, §2

IDH1 R132h = IDH1 R132h (Homo sapiens, UniProt O75874, R132H); experiment: Isocitrate dehydrogenase inhibition assay (NADPH/α-KG, WST-8 readout); conditions: for IC50: room temperature 60 min, absorbance 450 nm, repeated three times
Method: DMSO was used to configure the compounds into different concentrations as test samples. 2 mm NADPH (3 μl) and 1 m α-Kg (0.1 μl) was added to IDH1 buffer (pH 6.5; 96 μl) solution as reaction substrate in the reaction system. Then, the test samples (2.0 μl), IDH1 R132h (0.4 μl), PMS (0.1 μl) and 15 mM WST-8 (1.0 μl) were successively added to the above mixture and reacted at room temperature for 60 min. AGI-5198 was used as positive control and DMSO as the negative control. The absorption peak of 450 nm was detected by microplate reader. The test was repeated three times for each test samples, and the IC50 was calculated by GraphPad Prism.
We have learned that isocitrate dehydrogenase (IDH) gene mutations are closely related to the occurrence and development of tumors ([Fujii et al., 2016]). IDH mutations mainly occur in malignant tumors such as glioma, acute myeloid leukemia, chondrosarcoma, and intrahepatic cholangiocarcinoma. IDH mutation ultimately promote the occurrence and development of tumors ([Gondim et al., 2019]). Therefore, inhibition of IDH1 R132h activity was screened using the above compounds. AGI-5198 was used as a positive control in this experiment with the IC50 value of 0.04 μg/ml.

PTP1B = target: T3, PTP1B (Homo sapiens, UniProt P18031); experiment: Inhibition of protein tyrosine phosphatase (PTPs) assay, pNPP substrate: PTP1B; conditions: for inhibitory activity against PTP1B (in words): in vitro, compared with Na3VO4
T3 sequence (P18031 1-435): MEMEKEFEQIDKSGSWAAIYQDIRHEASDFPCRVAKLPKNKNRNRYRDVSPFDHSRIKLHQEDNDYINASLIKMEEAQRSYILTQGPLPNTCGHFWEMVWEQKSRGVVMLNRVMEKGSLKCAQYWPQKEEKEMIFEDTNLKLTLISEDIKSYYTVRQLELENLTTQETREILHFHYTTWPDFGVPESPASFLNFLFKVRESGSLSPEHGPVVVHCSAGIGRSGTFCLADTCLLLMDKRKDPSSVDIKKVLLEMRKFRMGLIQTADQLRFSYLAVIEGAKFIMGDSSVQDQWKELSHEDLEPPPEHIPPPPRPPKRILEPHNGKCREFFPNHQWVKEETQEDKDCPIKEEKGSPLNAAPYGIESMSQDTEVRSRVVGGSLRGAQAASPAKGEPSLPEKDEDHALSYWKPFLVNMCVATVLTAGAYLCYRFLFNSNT
Method: Nitrophenyl phosphate (pNPP) was used as substrate to determine the enzyme inhibition test. Fifty microliter reaction buffer (pH 6.5) including 50 mM HEPES, 100 mM NaCl, 1 mM EDTA, and 1 mM dithiothreitol (DTT) and compounds was added to 96 well plates, and incubate at room temperature for 15 min. Further, 50 μl reaction buffer with 50 mM pNPP was added and incubated at 37°C for 60 min. […] The phosphatase activity was determined by absorbance measured at 405 nm. The test was repeated three times for each compound. The IC50 value was derived from three independent experiments.

[1] = pNPP substrate, pH 6.5, 37°C 60 min, absorbance 405 nm, three independent experiments
[2] = pNPP substrate, pH 6.5, 37°C 60 min, absorbance 405 nm, three independent experiments, read-out: IC50 PTP1B (converted)
[3] = pNPP substrate, pH 6.5, 37°C 60 min, absorbance 405 nm, three independent experiments, read-out: IC50 CD45 (converted)
[4] = pNPP substrate, pH 6.5, 37°C 60 min, absorbance 405 nm, three independent experiments, read-out: IC50 TCPTP

Sequence of IDH1 R132h (O75874 whole entry R132H): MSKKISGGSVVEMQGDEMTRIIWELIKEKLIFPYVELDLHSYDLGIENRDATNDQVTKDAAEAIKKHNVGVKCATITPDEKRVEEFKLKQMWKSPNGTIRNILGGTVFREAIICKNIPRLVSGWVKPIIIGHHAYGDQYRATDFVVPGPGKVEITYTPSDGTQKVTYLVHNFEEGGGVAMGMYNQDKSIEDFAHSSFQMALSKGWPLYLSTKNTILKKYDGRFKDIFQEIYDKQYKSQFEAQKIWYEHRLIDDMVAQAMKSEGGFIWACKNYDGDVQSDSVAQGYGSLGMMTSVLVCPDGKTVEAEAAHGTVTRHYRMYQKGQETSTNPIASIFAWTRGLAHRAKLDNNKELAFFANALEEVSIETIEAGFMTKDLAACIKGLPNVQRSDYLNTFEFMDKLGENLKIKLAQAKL

| SMILES | IC50 (IDH1 R132h) [µM] | IC50 (PTP1B; [2]) [µM] | IC50 (CD45; [3]) [µM] | IC50 (TCPTP; [4]) [µM] | also measured |
| --- | --- | --- | --- | --- | --- |
| [Na+].[Na+].[Na+].[O]=[V]([O-])([O-])[O-] [Na3VO4, reference compound] | – | – | – | – | IC50 CD45 (CD45; [1]): 0.36 ± 0.09 mg/L; IC50 TCPTP (TCPTP; [1]): 0.44 ± 0.11 mg/L |
| COc1cc(O)c2c(c1)C1(CC(O)C(O)C=C1C)OC2=O (centres unmarked) [Compound 2, Alternafurone B] | 66.4 | – | – | – | inhibitory activity against IDH1 R132h (in words) (IDH1 R132h): inhibitory activities |
| COc1cc(O)c2c(c1)C1=CC(O)C(O)CC1(C)OC2=O (centres unmarked) [Compound 12, 4′-epialtenuene] | – | 25.5 | > 342 | > 342 | inhibitory activity against PTP1B (in words) (PTP1B): inhibitory activity |
| COC(=O)C1CC2(O)CC3(C)OC(=O)c4c(O)cc(OC)cc4C3=CC2(O)O1 (centres unmarked) [Compound 4, Alternapyrone N] | 36 | – | – | – | inhibitory activity against IDH1 R132h (in words) (IDH1 R132h): inhibitory activities |
| COc1cc(O)c2c(=O)oc3cc(O)cc(C)c3c2c1 [Compound 7, alternariol 9-methyl ether] | – | – | – | – | IC50 (PTP1B): 139 µM; IC50 (CD45): 72.8 µM; IC50 (TCPTP): 211 µM |
| COc1cc(O)c2c(c1)C1=CC3(CC(O)C(=O)O3)C(O)CC1(C)OC2=O (centres unmarked) [Compound 3, Alternapyrone M] | > 147 | – | – | – | – |
| COc1cc(O)c2c(c1)C1(CC(O)C(O)C=C1C)OC2=O (centres unmarked) [Compound 1, Alternafurone A] | 101 | – | – | – | inhibitory activity against IDH1 R132h (in words) (IDH1 R132h): inhibitory activities |
| COc1cc(O)c2c(c1)C1=C[C@H](O)[C@@H](O)C[C@]1(C)OC2=O [Compound 10, 5-hydroxyepialtenuene] | – | 156 | > 342 | > 342 | – |
| Cc1cc(=O)c2c(C)cc(O)cc2o1 [Compound 17, 2,5-dimethyl-7-hydroxychromone] | – | > 526 | 104 | > 526 | – |
| Cc1ccccc1C(C(=O)NC1CCCCC1)N(C(=O)Cn1ccnc1C)c1cccc(F)c1 (centres unmarked) [AGI-5198, reference compound] | 0.0865 | – | – | – | – |
| Cc1cc(O)cc2oc(=O)c3c(O)cc(O)cc3c12 [Compound 6, alternariol] | – | – | – | – | IC50 (PTP1B): 61 µM; IC50 (CD45): 22.5 µM; inhibitory activity against CD45 (in words) (CD45; in vitro, compared with Na3VO4): definite inhibitory activity; IC50 (TCPTP): 30.2 µM; inhibitory activity against TCPTP (in words) (TCPTP; in vitro, compared with Na3VO4): definite inhibitory activity |
| COc1cc(O)c2c(c1)C1=C[C@@H](O)[C@@H](O)C[C@]1(C)OC2=O [Compound 11, 5′-epialtenuene] | – | 187 | > 342 | > 342 | – |
| COc1cc(O)c2c(c1)C1C[C@H](O)[C@@H](O)C[C@@]1(C)OC2=O (some centres unmarked) [Compound 9, 3-epidihydroaltenuene A] | – | 3.3 | > 340 | > 340 | inhibitory activity against PTP1B (in words) (PTP1B): specific and significant inhibition; also recorded: significant inhibitory activity |
| Cc1cc(O)cc2oc(CO)cc(=O)c12 [Compound 19, 7-hydroxy-2-hydroxymethyl-5-methyl-4H-chromen-4-one] | – | > 485 | 120 | > 485 | – |
| COc1cc(O)cc(C2=C(C)C[C@@H](O)C2=O)c1 [Compound 14, (+)-nigrosporaol A] | – | 383 | > 427 | > 427 | – |
